According to the supplement of paper PMC11451515:

What was measured:
Settings in all cases: 48 h
SEM cells [1] = experiment: cell viability relative to DMSO control; higher = less cytotoxic
Summary of the method: (§1)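 Library compounds in DMSO were pin-dosed into 1536-well plates (5 μl) holding NOMO1 or SEM (500 cells/well) or P12-Ichikawa (1000 cells/well) leukemia cells, across an 11-point threefold series of 47 μM to 0.79 nM. Each cell line had been adapted for at least four passages in each medium. CellTiter-Glo One luminescence was read after 48 h at 37°C. Viability is the per-plate percentage relative to DMSO wells, with cell-free wells as background.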

P12-Ichikawa [2] = experiment: as above
Summary of the method: as §1

NOMO1 [3] = experiment: as above
Summary of the method: as §1

SEM cells [4] = experiment: AUC of viability dose-response curve (% viability x log10 dose units); higher = less sensitive
Summary of the method: (§2)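 Leukemia cells adapted to each medium (500 or 1000 cells/well, 1536-well plates) were exposed to library compounds in DMSO for 48 h at 37°C at 11 threefold doses, 47 μM to 0.79 nM. Luminescence by CellTiter-Glo One was normalised per plate to DMSO and cell-free wells, then fitted with a four-parameter log-logistic curve on log10 dose. Curves above full viability were scaled and quality-control failures removed before area under the curve was integrated by trapezoidal rule.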

P12-Ichikawa [5] = experiment: as above
Summary of the method: as §2

NOMO1 [6] = experiment: as above
Summary of the method: as §2

Cc1cccc(-c2[nH]c(C(C)(C)C)nc2-c2ccc3c(c2)OCO3)n1
cell viability [%]
Settings	NOMO1 [3]	P12-Ichikawa [2]	SEM cells [1]
HPLM + 10% dialyzed FBS, 0.000781 µM	94.7	105	103
HPLM + 10% dialyzed FBS, 0.00234 µM	105	109	98.7
HPLM + 10% dialyzed FBS, 0.00702 µM	107	110	114
HPLM + 10% dialyzed FBS, 0.0211 µM	114	107	105
HPLM + 10% dialyzed FBS, 0.0632 µM	115	102	104
HPLM + 10% dialyzed FBS, 0.19 µM	95.4	105	120
HPLM + 10% dialyzed FBS, 0.569 µM	104	110	113
HPLM + 10% dialyzed FBS, 1.71 µM	114	105	121
HPLM + 10% dialyzed FBS, 5.12 µM	103	100	109
HPLM + 10% dialyzed FBS, 15.4 µM	24	17.5	10.8
HPLM + 10% dialyzed FBS, 46.1 µM	11.9	11.1	7.86
RPMI 5 mM glucose + 10% FBS, 0.000781 µM	97.4	98.4	–
RPMI 5 mM glucose + 10% FBS, 0.00234 µM	106	102	–
RPMI 5 mM glucose + 10% FBS, 0.00702 µM	100	92.8	–
RPMI 5 mM glucose + 10% FBS, 0.0211 µM	93.4	106	–
RPMI 5 mM glucose + 10% FBS, 0.0632 µM	101	96.9	–
RPMI 5 mM glucose + 10% FBS, 0.19 µM	92.7	97	–
RPMI 5 mM glucose + 10% FBS, 0.569 µM	100	94.1	–
RPMI 5 mM glucose + 10% FBS, 1.71 µM	92.6	96.2	–
RPMI 5 mM glucose + 10% FBS, 5.12 µM	86.3	98.6	–
RPMI 5 mM glucose + 10% FBS, 15.4 µM	11.5	14	–
RPMI 5 mM glucose + 10% FBS, 46.1 µM	8.98	8.01	–
RPMI 5 mM glucose + 10% dialyzed FBS, 0.000781 µM	101	102	92.1
RPMI 5 mM glucose + 10% dialyzed FBS, 0.00234 µM	92.1	112	96.8
RPMI 5 mM glucose + 10% dialyzed FBS, 0.00702 µM	94.4	–	100
RPMI 5 mM glucose + 10% dialyzed FBS, 0.0211 µM	94.3	108	93
RPMI 5 mM glucose + 10% dialyzed FBS, 0.0632 µM	107	101	120
RPMI 5 mM glucose + 10% dialyzed FBS, 0.19 µM	86.9	101	99.7
RPMI 5 mM glucose + 10% dialyzed FBS, 0.569 µM	92.8	106	107
RPMI 5 mM glucose + 10% dialyzed FBS, 1.71 µM	97.2	95.9	121
RPMI 5 mM glucose + 10% dialyzed FBS, 5.12 µM	97.3	96	111
RPMI 5 mM glucose + 10% dialyzed FBS, 15.4 µM	13.9	37.1	10.4
RPMI 5 mM glucose + 10% dialyzed FBS, 46.1 µM	9.64	19.6	4.24

AUC of viability dose-response curve
Settings	NOMO1 [6]	P12-Ichikawa [5]	SEM cells [4]
HPLM + 10% dialyzed FBS	418	413	411
RPMI 5 mM glucose + 10% FBS	399	406	409
RPMI 5 mM glucose + 10% dialyzed FBS	398	423	411

CC[C@@H]1C(=O)N(C)c2cnc(Nc3ccc(C(=O)NC4CCN(C)CC4)cc3OC)nc2N1C1CCCC1
cell viability [%]
Settings	NOMO1 [3]	P12-Ichikawa [2]	SEM cells [1]
HPLM + 10% dialyzed FBS, 0.000781 µM	125	116	–
HPLM + 10% dialyzed FBS, 0.00234 µM	115	123	–
HPLM + 10% dialyzed FBS, 0.00702 µM	124	112	–
HPLM + 10% dialyzed FBS, 0.0211 µM	118	84.8	–
HPLM + 10% dialyzed FBS, 0.0632 µM	45.9	13.1	–
HPLM + 10% dialyzed FBS, 0.19 µM	43.7	13.3	–
HPLM + 10% dialyzed FBS, 0.569 µM	57.4	13.4	–
HPLM + 10% dialyzed FBS, 1.71 µM	46.6	16	–
HPLM + 10% dialyzed FBS, 5.12 µM	36.9	16.5	–
HPLM + 10% dialyzed FBS, 15.4 µM	21.5	11.4	–
HPLM + 10% dialyzed FBS, 46.1 µM	4.78	4.01	–
RPMI 5 mM glucose + 10% FBS, 0.000781 µM	117	126	104
RPMI 5 mM glucose + 10% FBS, 0.00234 µM	112	123	125
RPMI 5 mM glucose + 10% FBS, 0.00702 µM	116	116	114
RPMI 5 mM glucose + 10% FBS, 0.0211 µM	117	107	116
RPMI 5 mM glucose + 10% FBS, 0.0632 µM	68.9	15.6	39
RPMI 5 mM glucose + 10% FBS, 0.19 µM	28.6	15.3	19.9
RPMI 5 mM glucose + 10% FBS, 0.569 µM	24.5	17.5	20.8
RPMI 5 mM glucose + 10% FBS, 1.71 µM	27.1	15.4	17.8
RPMI 5 mM glucose + 10% FBS, 5.12 µM	22.9	15	13.5
RPMI 5 mM glucose + 10% FBS, 15.4 µM	14.3	12.9	7.48
RPMI 5 mM glucose + 10% FBS, 46.1 µM	5.11	4.84	3.43
RPMI 5 mM glucose + 10% dialyzed FBS, 0.000781 µM	107	116	117
RPMI 5 mM glucose + 10% dialyzed FBS, 0.00234 µM	121	124	128
RPMI 5 mM glucose + 10% dialyzed FBS, 0.00702 µM	113	121	105
RPMI 5 mM glucose + 10% dialyzed FBS, 0.0211 µM	117	114	128
RPMI 5 mM glucose + 10% dialyzed FBS, 0.0632 µM	53.9	19.4	37.9
RPMI 5 mM glucose + 10% dialyzed FBS, 0.19 µM	30	18.7	23.2
RPMI 5 mM glucose + 10% dialyzed FBS, 0.569 µM	32.6	19.7	22.1
RPMI 5 mM glucose + 10% dialyzed FBS, 1.71 µM	39	20.8	18.9
RPMI 5 mM glucose + 10% dialyzed FBS, 5.12 µM	30.9	21.2	11.1
RPMI 5 mM glucose + 10% dialyzed FBS, 15.4 µM	21.8	17.8	6.14
RPMI 5 mM glucose + 10% dialyzed FBS, 46.1 µM	10.4	4.69	3.08

AUC of viability dose-response curve
Settings	NOMO1 [6]	P12-Ichikawa [5]	SEM cells [4]
HPLM + 10% dialyzed FBS	259	187	205
RPMI 5 mM glucose + 10% FBS	240	196	215
RPMI 5 mM glucose + 10% dialyzed FBS	252	210	213
